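Method: 48-hour compound exposure of cells in 96-well plates, five concentrations, linear interpolation of endpoints. At the GI50, growth is halved.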 Calls of active or inactive are those of the source. No stated cut-off is given here; in the data, active = GI50 up to about 1.1 µM and inactive = higher.
Legend:
Test in all cases: DTP human tumour cell line panel, 48 h
SK-OV-3 = test system: SK-OV-3
LOX IMVI = test system: LOX IMVI
M14 = test system: M14
HOP-92 = test system: HOP-92
SW-620 = test system: SW-620
SNB-19 = test system: SNB-19
Hs-578T = test system: Hs-578T
MCF7 = test system: MCF7
SF-268 = test system: SF-268
SNB-75 = test system: SNB-75
U-251 = test system: U-251
NCI-H522 = test system: NCI-H522
ACHN = test system: ACHN
BT-549 = test system: BT-549
786-0 = test system: 786-0
SK-MEL-5 = test system: SK-MEL-5
PC-3 = test system: PC-3
K562 = test system: K562
MOLT-4 = test system: MOLT-4

Measured: GI50

O=C(C#Cc1cn(C2CC(O)C(CO)O2)c(=O)[nH]c1=O)c1ccccc1 (centres undefined)
inactive: SK-OV-3 > 100 µM | LOX IMVI 49.8 µM | M14 28.5 µM | HOP-92 29.5 µM | SW-620 25.2 µM | SNB-19 > 100 µM | Hs-578T 79.3 µM | MCF7 33.3 µM | SF-268 > 100 µM | SNB-75 > 100 µM | U-251 > 100 µM | NCI-H522 5.6 µM | ACHN 83.4 µM | BT-549 37.2 µM | 786-0 62.2 µM | SK-MEL-5 88.7 µM | PC-3 > 100 µM

COc1cc(OC)c2c(c1)OC(c1ccccc1)CC2=O (centres undefined) [DIMETHYLPINOCEMBRIN]
inactive: SK-OV-3 > 10 µM | LOX IMVI > 10 µM | M14 > 10 µM | HOP-92 > 10 µM | SW-620 > 10 µM | SNB-19 > 10 µM | Hs-578T > 10 µM | MCF7 > 10 µM | K562 > 10 µM | SF-268 > 10 µM | SNB-75 > 10 µM | U-251 > 10 µM | NCI-H522 > 10 µM | MOLT-4 > 10 µM | ACHN > 10 µM | BT-549 > 10 µM | 786-0 > 10 µM | SK-MEL-5 > 10 µM | PC-3 > 10 µM

CS(C)(=O)=N/C=C\C(=O)C(Cl)(Cl)Cl
inactive: SK-OV-3 > 100 µM | LOX IMVI > 100 µM | M14 > 100 µM | HOP-92 > 100 µM | SW-620 > 100 µM | SNB-19 > 100 µM | Hs-578T > 100 µM | MCF7 > 100 µM | K562 > 100 µM | SF-268 > 100 µM | SNB-75 > 100 µM | U-251 79.1 µM | NCI-H522 36.1 µM | MOLT-4 53.8 µM | ACHN > 100 µM | BT-549 > 100 µM | 786-0 > 100 µM | SK-MEL-5 > 100 µM | PC-3 54 µM

CN1CCc2c(sc3nc(S)nc(S)c23)C1
inactive: SK-OV-3 > 100 µM | LOX IMVI > 100 µM | M14 > 100 µM | HOP-92 > 100 µM | SW-620 > 100 µM | SNB-19 > 100 µM | Hs-578T > 100 µM | MCF7 > 100 µM | K562 > 100 µM | SF-268 > 100 µM | SNB-75 > 100 µM | U-251 72.4 µM | NCI-H522 > 100 µM | MOLT-4 > 100 µM | ACHN > 100 µM | BT-549 > 100 µM | 786-0 > 100 µM | SK-MEL-5 > 100 µM | PC-3 > 100 µM
